Experimental data reported in publication PMC10871713 (Materials today. Nano, 2023).
Positions of bridges follow the written chain, without caps; N, C: chain ends. No end group written: not given here.

Tests used:
[1] = cyclic peptide; cited from earlier work
streptavidin = settings: AFM; streptavidin/biotin partners (Beebe et al.) ref 40, 41; cited from earlier work
[2] = test system: adipose-derived stem cells (ADSCs); experiment: ADSC attachment and spreading on protein crystals; type: cell-based, human; settings: protein crystal surface passivated by covalent attachment of PEG; data not shown
CJ^OPT protein crystal = test system: CJ^OPT protein crystal; parameters: species or system Campylobacter jejuni

Compound: CWDDGWLC (disulfide 1-8 (inferred)) [IntP]
- binding to RGD [1]: binds RGD

Compound: O=C(O)CCCC[C@@H]1SC[C@@H]2NC(=O)N[C@@H]21 [biotin]
- ligand-receptor bond-rupture force (streptavidin): 442 ± 17 pN

Compound: poly(ethylene glycol) [PEG]
- cell adhesion [2]: no cell adhesion
- adsorption of PEG from solution by crystals (CJ^OPT protein crystal): adsorbed by the crystals from solution within minutes
